Experimental data as given in patent US10633542B2, “Azacyanine dyes and use thereof” (Ecole Polytechnique Fédérale de Lausanne (EPFL), priority 2018, dated 2020).
Values joined by “and” are separate entries in the source; they are usually repeats but may differ in a detail not shown here. Equal values may be shown once.

Legend:
[1] = system: A431 cells; test: Cell uptake in live cells; assay type: cell-based; conditions: for Average values: average of wells; for Avg Radiant Efficiency: single wells
Experimental: Therefore, we performed such experiments in live cells with Compound VIII compound. […] The following procedure was used:
Cells were grown in 96 well plates to confluent level. Media was removed, cells washed with PBS, incubated for a set time (5, 15, or 30 minutes) at varying concentrations of the dye (5 μM, 10 μM, and 25 μM) in PBS. Dye was removed, cells washed twice with PBS, then PBS added for imaging.
The values for each well were consistent with that of the control group of wells that were not exposed to the dye in wells A1-A3. The bright well at F12 is a solution of Compound VIII at 5 μM in PBS to insure imaging of the dye is occurring.

[2] = Shortwave infrared / NIR-II imaging with SWIR camera system; assay type: physicochemical; conditions: commercial SWIR camera system
Description: It was already shown that in the NIR-II region there is less absorption and […] enabling 2 times deeper imaging with much higher resolution respectively. […] The results are shown on FIG. 24. The camera used for obtaining the data has the following specs: “Princeton NIRvana detector, IsoPlane SCT320 spectrometer, Nikon inverted microscope, 658 nm, 785 nm and Xenon lamp/monochromator illumination sources” The other derivatives of aza-cyanine analogs covered in the current invention are currently being tested to find the optimal SWIR imaging dye.

[3] = system: necrotic tissue; test: Necrosis imaging in vivo after cardiotoxin injection; set-up: species or system mouse
Experimental: Cardiotoxin (10 μM in 50 μL of PBS) was injected into the right thigh of the mouse and 50 μL of PBS was injected into the left thigh. 24 hours post-injection of toxin, Compound VIII ([…] in 100 μL PBS) was injected intravenously into the tail of the mouse. […] The results are shown below in FIG. 20-22. The brightnesses of the images are not on scale with one another. The quantification is shown on the same graph. Significant signal over-background ratios resulting from accumulation of the dye in necrosis areas observed as early as 10 min post-injection of the Compound VIII making it ideal for clinical translation.

[4] = cited from earlier work
[5] = in methanol, calibration standard; cited from earlier work
[6] = system: sliced skin tissue of a nude mouse (dry-ice treated); test: Ex vivo cell death assay, cryogenic tissue damage; conditions: 1 uM, 5 uM, 10 uM, 10 min at room temperature
Experimental: Ex vivo cell death assay for compounds, VI and XIV were studied using a method of cryogenic tissue damage. Briefly, a bar of a dry ice was applied to sliced skin tissue of a nude mouse recently sacrificed in a petri dish for a period of 60 sec. Subsequently, the skin tissue samples were incubated with different concentrations of dye VI and XIV (1 uM, 5 uM, and 10 uM) for 10 min at room temperature.

What does the source list for CN1C=CC=C2C1=N/C(=C\C=C1/C[N+](C)(C)CC(/C=C/C3=Nc4c(ccc[n+]4C)C3(C)C)=C1Cl)C2(C)C.I [Compound VIII]?
Average values ([1]; 5 μM, 5 minutes): 1.49E+07 [p/s/cm^2/sr]/[μW/cm^2]; Avg Radiant Efficiency ([1]; 5 μM, 5 minutes): 1.64E+07 [p/s/cm^2/sr]/[μW/cm^2] and 1.47E+07 [p/s/cm^2/sr]/[μW/cm^2] and 1.36E+07 [p/s/cm^2/sr]/[μW/cm^2]; Average values ([1]; 5 μM, 15 minutes): 1.24E+07 [p/s/cm^2/sr]/[μW/cm^2]; Avg Radiant Efficiency ([1]; 5 μM, 15 minutes): 1.29E+07 [p/s/cm^2/sr]/[μW/cm^2] and 1.23E+07 [p/s/cm^2/sr]/[μW/cm^2] and 1.19E+07 [p/s/cm^2/sr]/[μW/cm^2]; Average values ([1]; 5 μM, 30 minutes): 1.17E+07 [p/s/cm^2/sr]/[μW/cm^2]; Avg Radiant Efficiency ([1]; 5 μM, 30 minutes): 1.18E+07 [p/s/cm^2/sr]/[μW/cm^2] and 1.16E+07 [p/s/cm^2/sr]/[μW/cm^2] and 1.17E+07 [p/s/cm^2/sr]/[μW/cm^2]; Average values ([1]; 10 μM, 5 minutes): 1.39E+07 [p/s/cm^2/sr]/[μW/cm^2]; Avg Radiant Efficiency ([1]; 10 μM, 5 minutes): 1.50E+07 [p/s/cm^2/sr]/[μW/cm^2] and 1.39E+07 [p/s/cm^2/sr]/[μW/cm^2] and 1.28E+07 [p/s/cm^2/sr]/[μW/cm^2]; Average values ([1]; 10 μM, 15 minutes): 1.20E+07 [p/s/cm^2/sr]/[μW/cm^2]; Avg Radiant Efficiency ([1]; 10 μM, 15 minutes): 1.24E+07 [p/s/cm^2/sr]/[μW/cm^2] and 1.18E+07 [p/s/cm^2/sr]/[μW/cm^2] and 1.17E+07 [p/s/cm^2/sr]/[μW/cm^2]; Average values ([1]; 10 μM, 30 minutes): 1.15E+07 [p/s/cm^2/sr]/[μW/cm^2]; Avg Radiant Efficiency ([1]; 10 μM, 30 minutes): 1.16E+07 [p/s/cm^2/sr]/[μW/cm^2] and 1.15E+07 [p/s/cm^2/sr]/[μW/cm^2] and 1.13E+07 [p/s/cm^2/sr]/[μW/cm^2]; Average values ([1]; 25 μM, 5 minutes): 1.33E+07 [p/s/cm^2/sr]/[μW/cm^2]; Avg Radiant Efficiency ([1]; 25 μM, 5 minutes): 1.39E+07 [p/s/cm^2/sr]/[μW/cm^2] and 1.34E+07 [p/s/cm^2/sr]/[μW/cm^2] and 1.27E+07 [p/s/cm^2/sr]/[μW/cm^2]; Average values ([1]; 25 μM, 15 minutes): 1.20E+07 [p/s/cm^2/sr]/[μW/cm^2]; Avg Radiant Efficiency ([1]; 25 μM, 15 minutes): 1.22E+07 [p/s/cm^2/sr]/[μW/cm^2] and 1.20E+07 [p/s/cm^2/sr]/[μW/cm^2] and 1.19E+07 [p/s/cm^2/sr]/[μW/cm^2]; Average values ([1]; 25 μM, 30 minutes): 1.20E+07 [p/s/cm^2/sr]/[μW/cm^2]; Avg Radiant Efficiency ([1]; 25 μM, 30 minutes): 1.20E+07 [p/s/cm^2/sr]/[μW/cm^2]; uptake in live A431 cells ([1]; long incubation periods (30 min), high concentrations (25 uM)): No uptake; radiance of wells incubated with the dye compared to that of the control ([1]; wells B1-C10, 5-25 μM, 5-30 minutes): no significant difference; absorption in the NIR-II region [2]: absorbs in the NIR-II region; targeting of necrotic area in vivo ([3]; cardiotoxin in right thigh, dye 40 μmoles in 100 μL PBS intravenously 24 hours later): selectively targets the necrotic area; clearance route ([3]; mouse, intravenous): clears through the kidneys instead of accumulating in the liver; time post-injection at which significant signal over-background ratios are observed ([3]; mouse, intravenous): 10 min

Which solubility in saline [4] does the source give for CC1(C)C(/C=C/C=C/C=C/C=C2\N(CCCCS(=O)(=O)O)c3ccc4ccccc4c3C2(C)C)=[N+](CCCCS(=O)(=O)[O-])c2ccc3ccccc3c21 [ICG, Indocyanine Green] here?
The solubility in saline was “not readily soluble”.

And the “fluorescence quantum yield (QY)” value [5]?
Its value is 7.8%.

What does the source list for CC1(C)C2=CC=CN(CCCCCC(=O)O)C2=N/C1=C/C=C1\C[N+](C)(C)CC(/C=C/C2=Nc3c(ccc[n+]3CCCCCC(=O)O)C2(C)C)=C1Cl [dye VI]?
fluorescence at the site of focal dry-ice treatment [6]: strong fluorescence signal; signal from the viable cells [6]: no signal; absorption in the NIR-II region [2]: absorbs in the NIR-II region

With CC1(C)C2=CC=CN(CCCCCC(=O)O)C2=N/C1=C/C=C1\C[N+](C)(C)CC(/C=C/C2=Nc3c(ccc[n+]3CCCCCC(=O)O)C2(C)C)=C1Oc1ccc(S(=O)(=O)O)cc1.[Na+] [dye XIV] as the compound, how does the “fluorescence at the site of focal dry-ice treatment” value [6] read?
The value was “strong accumulation of fluorescence”.
